Data reported in patent US3971814A, “Benzo(b)thiophene derivatives” (priority 1972, dated 1976).
Where two headings read alike, the source gives them in different places.

Key:
[1] = test system: Yeast Edema of the Rat Paw; assay: Yeast edema and determination of pain threshold in the rat paw; type: in vivo; conditions: 3 h; for Volume (increase in paw volume, blank control = 100%): i.g.
Experimental: test animals are male rats (SIV 50) weighing 100 to 180 g. […] 10 animals belonged to each dosage group.
The volume of the paw is determined according to the method described by Enders and Heidbrink, the pain threshold according to that described by Randall and Selitto (Arch. Int. Pharmacodyn CXI: 409, 1957).
Following initial measurements, […] of a 5% suspension of dried yeast is injected subplantarly into the right paw and the test substances are administered immediately. The blank control group is given Tragacanth mucilage only. After 3 hours the pain threshold and the volume of the paw are determined again.
The mean value of the increase in paw volume of the animals of the blank control after 3 hours is rated 100%, and the mean value of the increase in paw volume of the animals of the substance groups expressed as a percentage thereof. Pain threshold after 3 hours reflects the increase or decrease in percent, compared to the initial value.
In order to be able to calculate the ED50 according to the method by Lichtfield and Wilcoxon (J.P.E.T. 96:99, 1949), those animals in a dose group are considered protected when the paw swelling was at least 40% less than that of the blank control.

[2] = in vivo; conditions: mouse
[3] = test system: Granuloma Pouch; assay: Granuloma pouch test; type: in vivo; conditions: rat
Experimental: Under light ether anesthesia 25 ml of air are injected under the shaved skin of the back. 0.5 ml of croton oil/animal (0.05%) are injected into the pouch formed by the air, and evenly distributed over the back by turning the animal.
On the third day croton oil (3%, 0.5 ml/animal) is again injected into this pouch.
The average dry weights of the granuloma pouches and the quantities of secretion of the groups subjected to treatment are then compared with those of the control group and the percental deviations calculated.
At the end of some tests the suprarenal glands are removed and the weight of these organs is also determined.
The weight of the animals is measured daily and the changes determined as a percentage.

[4] = test system: Granulation Tissue; assay: Cotton-pellet test (granulation tissue); type: in vivo; conditions: rat
Experimental: test animals are male rats (SIV 50) weighing 110 to 200 g. All test animals are kept fasting for 16 to 18 hours prior to the implantation of the pellets; after that food and water were available ad libitum. Each dose level of the chemical tested was administered to 12 animals. The substances were suspended in 1% Tragacanth mucilage and administered intragastrically by means of a stomach tube. The substances to be investigated and the control suspensions are administered once on the operating day following operation, and twice a day on the following 6 days (at intervals of 6 to 8 hours). The type of application and volume of liquid corresponded to that under B.
Under light ether anesthesia 4 sterile cotton pellets were implanted under the skin on the back of the animal. The weight of one pellet was 50 mg ± 0.5 mg. After 7 days treatment, the animals were sacrificed, the pellets removed with the granulation tissue, weighed and then dried in the incubator at +80°C to constant weight. The average dry weight of the granulation tissue of the control group was rated 100%, and deviations of the mean weights of the group treated with the test substance determined as a percentage thereof.
The weight of the animals is measured daily throughout the tests, and the percental increase determined. At the end of some tests, moreover, the suprarenal glands are removed and their weight determined.

[5] = test system: Carrageenin Edema of the Rat Paw; assay: Carrageenin edema of the rat paw; type: in vivo
Experimental: test animals used are the same as stated under Example B and up to the initial measurement, the procedure corresponded to that described under this example.
After an initial measurement, the test substances are administered and after 60 minutes a 1% Carrageenin suspension is injected subplantarly (0.1 ml/paw). After 60 and 180 minutes the paw volume is again determined. Here, too, the blank control group was treated with the carrier alone.
The increase in the volume of the paw after 60 minutes is considered as the first phase of the biphase edema and that after 180 minutes, as compared to the 60-minute-value, as the second phase. Moreover, the total increase of the paw edema within 180 minutes, as compared to the initial value, is also determined.
Determination of the influence exerted by the substances upon the development of the paw edema and calculation of the ED50 are done as under Example B.

[6] = test system: Kaolin Edema of the Rat Paw; assay: Kaolin edema of the rat paw; type: in vivo; conditions: 90.0 mg/kg
Experimental: test animals used are the same as stated under Example B and up to the beginning of the test, the procedure corresponded to that described under this example.
After an initial measurement, a sterile 25% kaolin suspension was injected (0.05 ml/paw) subplantarly. The test substances are administered immediately, and after 60, 120, and 180 minutes the paw volume is again determined.
Evaluation of the tests was performed as stated under Example C, and the results so obtained presented below: […]

[7] = test system: Arthritis Induced by the Freund Adjuvant; assay: Adjuvant arthritis; type: in vivo; conditions: rat, i.g., 2 × 60.0 mg/kg
Experimental: test animals used are the same as described under Example E; food and water is given ad libitum.
On the first day of the test a 0.8% suspension of Mycobacterium butyrium in paraffin (0.05 or 0.1 ml/paw) is injected subplantarly into the left hind paw of the animals. […] From the 19th to the 22nd day the animals showing a reaction are treated intragastrically with the test substances. The right paw having been marked above the ankle-joint, the volume is determined daily from the 19th to the 22nd or 23rd day, according to the process described under Example B.
The volume of liquid, as well as of the carrier administered, corresponded to that described in the above tests.

[8] = Summary: calculated ED50 and therapeutic ratio; type: in vivo, rat; conditions: Rattus norvegicus
Experimental: From the ED50 and LD50 (A) the following therapeutic ratios for this test are calculated: […]

[9] = ig., 2×50.0 mg/kg daily, section K
[10] = ig., 2×90.0 mg/kg daily, section K

`CN(C)CCNC(=N)c1sc2ccccc2c1O` [Example 31] showed a response vs control in vivo at 200 mg/kg ([1]; po, ig., 200 mg/kg, section K, read-out: volume (paw, control = 100%)) of 75%, an LD50 ([2]; po) of over 1600 mg/kg and an LD50 ([2]; sc) of over 800 mg/kg.

With `N=C(NCCN1CCOCC1)c1sc2ccccc2c1O` [Example 33] the change in vivo at 225 mg/kg ([1]; sc., 225 mg/kg, section K (control -10)) was 34%, the response vs control in vivo at 225 mg/kg ([1]; sc., 225 mg/kg, section K, read-out: volume (paw, control = 100%)) was 46% and the LD50 ([2]; sc) was about 1000 mg/kg.

For `N=C(NCCN1CCCC1)c1sc2ccccc2c1O` [Example 34], the response vs control in vivo at 125 mg/kg ([1]; sc., 125 mg/kg, section K, read-out: volume (paw, control = 100%)) was 54%, the “granuloma pouch dry weight %” value [3, 9] was 79% and the secretion % [3, 9] was 75%. The “increase in body weight %” value ([3]; ig., 2×50.0 mg/kg daily, section K, control 55) was 51% and the LD50 ([2]; sc) was about 600 mg/kg.

With `CCOCCCNC(=N)c1sc2ccccc2c1O` [Example 41] the change in vivo at 125 mg/kg ([1]; po, ig., 125 mg/kg, section K (control -9)) was 22%, the response vs control in vivo at 125 mg/kg ([1]; po, ig., 125 mg/kg, section K, read-out: volume (paw, control = 100%)) was 51% and the “granulation tissue % dry weight” value ([4]; ig., 2×150 mg/kg daily, section K) was 90%. For the same compound, the “increase in body weight %” value ([4]; ig., 2×150 mg/kg daily, section K, control 36) was 29% and the LD50 ([2]; po) was about 1600 mg/kg.

For `CCCCC1C(=O)N(c2ccccc2)N(c2ccccc2)C1=O` [Phenylbutazone, 4-n-Butyl-1,2-diphenyl-3,5-dioxo-pyrazolidine], the “Volume (increase in paw volume, blank control = 100%)” value ([1]; 150.0 mg/kg) was 74%, the “Volume (increase in paw volume, blank control = 100%)” value ([1]; 300.0 mg/kg) was 67% and the “1st Phase (paw edema)” value ([5]; 60.0 mg/kg) was 114%. The “2nd Phase (paw edema)” value ([5]; 60.0 mg/kg) was 52%, the “3 Hrs. (total paw edema)” value ([5]; 60.0 mg/kg) was 77% and the “1st Phase (paw edema)” value ([5]; 150.0 mg/kg) was 81%. The “2nd Phase (paw edema)” value ([5]; 150.0 mg/kg) was 15%, the “3 Hrs. (total paw edema)” value ([5]; 150.0 mg/kg) was 38% and the “60 Minutes (paw edema)” value [6] was 107%. The “120 Minutes (paw edema)” value [6] was 100%, the “180 Minutes (paw edema)” value [6] was 81% and the “Granulation Tissue % (Dry Weight)” value ([4]; i.g., 2 × 90 mg/kg daily) was 78%. The “Increase in Body Weight” value ([4]; in vivo, 90 mg/kg) was “not influenced”, the “Granuloma Pouch Dry Weight” value ([3]; i.g., 2 × 90 mg/kg daily) was 84% and the Secretion ([3]; i.g., 2 × 90 mg/kg daily) was 96%. The “granuloma pouch dry weight %” value [3, 10] was 84%, the secretion % [3, 10] was 96% and the “Increase in Body Weight” value ([3]; in vivo, 90 mg/kg) was “not influenced”. For the same compound, the “increase in body weight %” value ([3]; in vivo, 90 mg/kg) was 57%, the Swelling [7] was 84% and the ED50 [8] was 20.1 mg/kg.
